Test system: BHK-21 cells
Test: Anti-fibrosis activity test: inhibition of BHK-21 cell proliferation (CCK-8)
Assay type: cell-based
Details: Mesocricetus auratus, BHK-21, 48 h, CCK-8, 48 hours after administration
Summary of the method: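 Cells plated 2×10^4 cells/mL; 24 h attach; compound dilutions, triplicate, 48 h, 37° C/5% CO2; CCK-8 2 h; A450; IR = (1−Ai/Ao)×100%; IC50 by curve fit.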

| Structure (SMILES) | IC50 [mM] |
| --- | --- |
| Cc1ccccc1Cn1c2c(c(=O)c3ccccc31)C(=O)n1cccc1-2 [Compound 574a, 4-(2-Methylbenzyl)-9H-pyrrolizino[1,2-b]quinoline-9,10(4H)-dione] | 0.05 to 5 |
| O=C1c2c(n(Cc3ccccc3F)c3ccccc3c2=O)-c2cccn21 [Compound 599a, 4-(2-Fluorobenzyl)-9H-pyrrolizino[1,2-b]quinoline-9,10(4H)-dione] | 0.05 to 5 |
| O=C1c2c([nH]c3cc(O)ccc3c2=O)-c2cccn21 [Compound 524a, 6-Hydroxy-9H-pyrrolizino[1,2-b]quinoline-9,10(4H)-dione] | 0.05 to 5 |
| O=C1c2c(n(Cc3ccc(Cl)c(Cl)c3)c3ccccc3c2=O)-c2cccn21 [Compound 613a, 4-(3,4-Dichlorobenzyl)-9H-pyrrolizino[1,2-b]quinoline-9,10(4H)-dione] | < 0.05 |
| O=C1c2c(n(Cc3c(F)c(F)c(F)c(F)c3F)c3ccccc3c2=O)-c2cccn21 [Compound 586a, 4-((Perfluorophenyl)methyl)-9H-pyrrolizino[1,2-b]quinoline-9,10(4H)-dione] | 0.05 to 5 |

Test system: human lung fibroblasts HFL1
Test: Anti-fibrosis activity test: inhibition of proliferation of human lung fibroblasts HFL1 (CCK-8)
Assay type: cell-based
Details: Homo sapiens, HFL1, 48 h, human lung fibroblasts HFL1, CCK-8, 48 hours
Summary of the method: (§1)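 Seed 2×10^4 cells/mL; adhere 24 h, 37° C/5% CO2. Compounds, serial concentrations, triplicate, 48 h. CCK-8 2 h, A450. IR=(1−Ai/Ao)×100% vs blank; IC50 fitted. Pirfenidone as positive control.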

| Structure (SMILES) | IC50 [mM] |
| --- | --- |
| Cc1ccccc1Cn1c2c(c(=O)c3ccccc31)C(=O)n1cccc1-2 [Compound 574a, 4-(2-Methylbenzyl)-9H-pyrrolizino[1,2-b]quinoline-9,10(4H)-dione] | 0.05 to 5 |
| O=C1c2c(n(Cc3ccccc3F)c3ccccc3c2=O)-c2cccn21 [Compound 599a, 4-(2-Fluorobenzyl)-9H-pyrrolizino[1,2-b]quinoline-9,10(4H)-dione] | 0.05 to 5 |
| O=C1c2c([nH]c3cc(O)ccc3c2=O)-c2cccn21 [Compound 524a, 6-Hydroxy-9H-pyrrolizino[1,2-b]quinoline-9,10(4H)-dione] | 0.05 to 5 |
| O=C1c2c(n(Cc3ccc(Cl)c(Cl)c3)c3ccccc3c2=O)-c2cccn21 [Compound 613a, 4-(3,4-Dichlorobenzyl)-9H-pyrrolizino[1,2-b]quinoline-9,10(4H)-dione] | 0.05 to 5 |
| O=C1c2c(n(Cc3c(F)c(F)c(F)c(F)c3F)c3ccccc3c2=O)-c2cccn21 [Compound 586a, 4-((Perfluorophenyl)methyl)-9H-pyrrolizino[1,2-b]quinoline-9,10(4H)-dione] | 0.05 to 5 |

Test system: human hepatic stellate cells LX-2
Test: Anti-fibrosis activity test: inhibition of proliferation of human hepatic stellate cells LX-2 (CCK-8)
Assay type: cell-based
Details: Homo sapiens, 48 h, human hepatic stellate cells LX-2, CCK-8, 48 hours
Summary of the method: as §1

| Structure (SMILES) | IC50 [mM] |
| --- | --- |
| Cc1ccccc1Cn1c2c(c(=O)c3ccccc31)C(=O)n1cccc1-2 [Compound 574a, 4-(2-Methylbenzyl)-9H-pyrrolizino[1,2-b]quinoline-9,10(4H)-dione] | 0.05 to 5 |
| O=C1c2c(n(Cc3ccccc3F)c3ccccc3c2=O)-c2cccn21 [Compound 599a, 4-(2-Fluorobenzyl)-9H-pyrrolizino[1,2-b]quinoline-9,10(4H)-dione] | 0.05 to 5 |
| O=C1c2c([nH]c3cc(O)ccc3c2=O)-c2cccn21 [Compound 524a, 6-Hydroxy-9H-pyrrolizino[1,2-b]quinoline-9,10(4H)-dione] | 0.05 to 5 |
| O=C1c2c(n(Cc3ccc(Cl)c(Cl)c3)c3ccccc3c2=O)-c2cccn21 [Compound 613a, 4-(3,4-Dichlorobenzyl)-9H-pyrrolizino[1,2-b]quinoline-9,10(4H)-dione] | 0.05 to 5 |
| O=C1c2c(n(Cc3c(F)c(F)c(F)c(F)c3F)c3ccccc3c2=O)-c2cccn21 [Compound 586a, 4-((Perfluorophenyl)methyl)-9H-pyrrolizino[1,2-b]quinoline-9,10(4H)-dione] | 0.05 to 5 |

Test system: human fibrosarcoma cells HT-1080
Test: Anti-fibrosis activity test: inhibition of proliferation of human fibrosarcoma cells HT-1080 (CCK-8)
Assay type: cell-based
Details: Homo sapiens, HT-1080, 48 h, human fibrosarcoma cells HT-1080, CCK-8, 48 hours
Summary of the method: as §1

| Structure (SMILES) | IC50 [mM] |
| --- | --- |
| Cc1ccccc1Cn1c2c(c(=O)c3ccccc31)C(=O)n1cccc1-2 [Compound 574a, 4-(2-Methylbenzyl)-9H-pyrrolizino[1,2-b]quinoline-9,10(4H)-dione] | 0.05 to 5 |
| O=C1c2c(n(Cc3ccccc3F)c3ccccc3c2=O)-c2cccn21 [Compound 599a, 4-(2-Fluorobenzyl)-9H-pyrrolizino[1,2-b]quinoline-9,10(4H)-dione] | 0.05 to 5 |
| O=C1c2c([nH]c3cc(O)ccc3c2=O)-c2cccn21 [Compound 524a, 6-Hydroxy-9H-pyrrolizino[1,2-b]quinoline-9,10(4H)-dione] | 0.05 to 5 |
| O=C1c2c(n(Cc3ccc(Cl)c(Cl)c3)c3ccccc3c2=O)-c2cccn21 [Compound 613a, 4-(3,4-Dichlorobenzyl)-9H-pyrrolizino[1,2-b]quinoline-9,10(4H)-dione] | 0.05 to 5 |
| O=C1c2c(n(Cc3c(F)c(F)c(F)c(F)c3F)c3ccccc3c2=O)-c2cccn21 [Compound 586a, 4-((Perfluorophenyl)methyl)-9H-pyrrolizino[1,2-b]quinoline-9,10(4H)-dione] | 0.05 to 5 |

Test system: human dermal fibroblasts CCC-ESF-1
Test: Anti-fibrosis activity test: inhibition of proliferation of human dermal fibroblasts CCC-ESF-1 (CCK-8)
Assay type: cell-based
Details: Fibroblast; human dermal fibroblasts CCC-ESF-1, CCK-8, 48 hours
Summary of the method: as §1

| Structure (SMILES) | IC50 [mM] |
| --- | --- |
| Cc1ccccc1Cn1c2c(c(=O)c3ccccc31)C(=O)n1cccc1-2 [Compound 574a, 4-(2-Methylbenzyl)-9H-pyrrolizino[1,2-b]quinoline-9,10(4H)-dione] | 0.05 to 5 |
| O=C1c2c(n(Cc3ccccc3F)c3ccccc3c2=O)-c2cccn21 [Compound 599a, 4-(2-Fluorobenzyl)-9H-pyrrolizino[1,2-b]quinoline-9,10(4H)-dione] | 0.05 to 5 |
| O=C1c2c([nH]c3cc(O)ccc3c2=O)-c2cccn21 [Compound 524a, 6-Hydroxy-9H-pyrrolizino[1,2-b]quinoline-9,10(4H)-dione] | 0.05 to 5 |
| O=C1c2c(n(Cc3ccc(Cl)c(Cl)c3)c3ccccc3c2=O)-c2cccn21 [Compound 613a, 4-(3,4-Dichlorobenzyl)-9H-pyrrolizino[1,2-b]quinoline-9,10(4H)-dione] | 0.05 to 5 |
| O=C1c2c(n(Cc3c(F)c(F)c(F)c(F)c3F)c3ccccc3c2=O)-c2cccn21 [Compound 586a, 4-((Perfluorophenyl)methyl)-9H-pyrrolizino[1,2-b]quinoline-9,10(4H)-dione] | 0.05 to 5 |

Test system: human embryonic lung fibroblast IMR-90
Test: Anti-fibrosis activity test: inhibition of proliferation of human embryonic lung fibroblast IMR-90 (CCK-8)
Assay type: cell-based
Details: human embryonic lung fibroblast IMR-90, CCK-8, 48 hours
Summary of the method: as §1

| Structure (SMILES) | IC50 [mM] |
| --- | --- |
| Cc1ccccc1Cn1c2c(c(=O)c3ccccc31)C(=O)n1cccc1-2 [Compound 574a, 4-(2-Methylbenzyl)-9H-pyrrolizino[1,2-b]quinoline-9,10(4H)-dione] | 0.05 to 5 |
| O=C1c2c(n(Cc3ccccc3F)c3ccccc3c2=O)-c2cccn21 [Compound 599a, 4-(2-Fluorobenzyl)-9H-pyrrolizino[1,2-b]quinoline-9,10(4H)-dione] | 0.05 to 5 |
| O=C1c2c([nH]c3cc(O)ccc3c2=O)-c2cccn21 [Compound 524a, 6-Hydroxy-9H-pyrrolizino[1,2-b]quinoline-9,10(4H)-dione] | 0.05 to 5 |
| O=C1c2c(n(Cc3ccc(Cl)c(Cl)c3)c3ccccc3c2=O)-c2cccn21 [Compound 613a, 4-(3,4-Dichlorobenzyl)-9H-pyrrolizino[1,2-b]quinoline-9,10(4H)-dione] | 0.05 to 5 |
| O=C1c2c(n(Cc3c(F)c(F)c(F)c(F)c3F)c3ccccc3c2=O)-c2cccn21 [Compound 586a, 4-((Perfluorophenyl)methyl)-9H-pyrrolizino[1,2-b]quinoline-9,10(4H)-dione] | 0.05 to 5 |

Test system: cardiac fibroblast RAT-iCell-C002
Test: Anti-fibrosis activity test: inhibition of proliferation of cardiac fibroblast RAT-iCell-C002 (CCK-8)
Assay type: cell-based
Details: Cardiac fibroblast, 48 h, cardiac fibroblast RAT-iCell-C002, CCK-8, 48 hours
Summary of the method: as §1

| Structure (SMILES) | IC50 [mM] |
| --- | --- |
| Cc1ccccc1Cn1c2c(c(=O)c3ccccc31)C(=O)n1cccc1-2 [Compound 574a, 4-(2-Methylbenzyl)-9H-pyrrolizino[1,2-b]quinoline-9,10(4H)-dione] | 0.05 to 5 |
| O=C1c2c(n(Cc3ccccc3F)c3ccccc3c2=O)-c2cccn21 [Compound 599a, 4-(2-Fluorobenzyl)-9H-pyrrolizino[1,2-b]quinoline-9,10(4H)-dione] | 0.05 to 5 |
| O=C1c2c([nH]c3cc(O)ccc3c2=O)-c2cccn21 [Compound 524a, 6-Hydroxy-9H-pyrrolizino[1,2-b]quinoline-9,10(4H)-dione] | 0.05 to 5 |
| O=C1c2c(n(Cc3ccc(Cl)c(Cl)c3)c3ccccc3c2=O)-c2cccn21 [Compound 613a, 4-(3,4-Dichlorobenzyl)-9H-pyrrolizino[1,2-b]quinoline-9,10(4H)-dione] | 0.05 to 5 |
| O=C1c2c(n(Cc3c(F)c(F)c(F)c(F)c3F)c3ccccc3c2=O)-c2cccn21 [Compound 586a, 4-((Perfluorophenyl)methyl)-9H-pyrrolizino[1,2-b]quinoline-9,10(4H)-dione] | 0.05 to 5 |

Test system: NF-κB
Test: Immunological activity test: inhibition of NF-κB activity
Assay type: cell-based
Details: initial concentration of 30 μM; a/b isomers given as first/second symbol; read-out: IC50 (μM), inhibitory activity against NF-κB
Summary of the method: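 Parthenolide as positive control; starting test concentration 30 μM; inhibition of NF-κB activity analysed further to yield IC50.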

| Structure (SMILES) | IC50 [µM] |
| --- | --- |
| Cc1ccccc1Cn1c2c(c(=O)c3ccccc31)C(=O)n1cccc1-2 [Compound 574a, 4-(2-Methylbenzyl)-9H-pyrrolizino[1,2-b]quinoline-9,10(4H)-dione] | 1 to 10 |
| O=C1c2c(n(Cc3ccccc3F)c3ccccc3c2=O)-c2cccn21 [Compound 599a, 4-(2-Fluorobenzyl)-9H-pyrrolizino[1,2-b]quinoline-9,10(4H)-dione] | 0.1 to 1 |
| O=C1c2c([nH]c3cc(O)ccc3c2=O)-c2cccn21 [Compound 524a, 6-Hydroxy-9H-pyrrolizino[1,2-b]quinoline-9,10(4H)-dione] | 0.1 to 1 |
| O=C1c2c(n(Cc3ccc(Cl)c(Cl)c3)c3ccccc3c2=O)-c2cccn21 [Compound 613a, 4-(3,4-Dichlorobenzyl)-9H-pyrrolizino[1,2-b]quinoline-9,10(4H)-dione] | 1 to 10 |
| O=C1c2c(n(Cc3c(F)c(F)c(F)c(F)c3F)c3ccccc3c2=O)-c2cccn21 [Compound 586a, 4-((Perfluorophenyl)methyl)-9H-pyrrolizino[1,2-b]quinoline-9,10(4H)-dione] | 1 to 10 |

Test system: mouse macrophages (RAW264.7)
Test: Lipopolysaccharide-induced NO secretion in macrophages (Griess)
Assay type: cell-based
Details: Mus musculus, RAW264.7, 24 h, RAW264.7, LPS 1 μg/ml, a/b isomers given as first/second symbol, read-out: IC50 (μM), inhibition of lipopolysaccharide-induced NO secretion in macrophages
Summary of the method: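 LPS 1 μg/ml, 24 h, RAW264.7 (DMEM/10% FBS); cpds at varied concs. Supernatant NO by Griess, A548; % inhibition vs blank medium.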

| Structure (SMILES) | IC50 [µM] |
| --- | --- |
| Cc1ccccc1Cn1c2c(c(=O)c3ccccc31)C(=O)n1cccc1-2 [Compound 574a, 4-(2-Methylbenzyl)-9H-pyrrolizino[1,2-b]quinoline-9,10(4H)-dione] | 1 to 10 |
| O=C1c2c(n(Cc3ccccc3F)c3ccccc3c2=O)-c2cccn21 [Compound 599a, 4-(2-Fluorobenzyl)-9H-pyrrolizino[1,2-b]quinoline-9,10(4H)-dione] | 1 to 10 |
| O=C1c2c([nH]c3cc(O)ccc3c2=O)-c2cccn21 [Compound 524a, 6-Hydroxy-9H-pyrrolizino[1,2-b]quinoline-9,10(4H)-dione] | 0.1 to 1 |
| O=C1c2c(n(Cc3ccc(Cl)c(Cl)c3)c3ccccc3c2=O)-c2cccn21 [Compound 613a, 4-(3,4-Dichlorobenzyl)-9H-pyrrolizino[1,2-b]quinoline-9,10(4H)-dione] | 10 to 50 |
| O=C1c2c(n(Cc3c(F)c(F)c(F)c(F)c3F)c3ccccc3c2=O)-c2cccn21 [Compound 586a, 4-((Perfluorophenyl)methyl)-9H-pyrrolizino[1,2-b]quinoline-9,10(4H)-dione] | 0.1 to 1 |

Source: patent US11040028B2, “Penicinotam derivative, preparation method and use thereof” (OCEAN UNIVERSITY OF CHINA, priority 2017, dated 2021)
